According to PubChem BioAssay (NCI):
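Briefly, cells in 96-well plates were exposed to five compound concentrations for 48 h, and endpoints were estimated by linear interpolation. TGI denotes the concentration required for complete inhibition of growth.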 Residues, ends and D or L forms follow the SMILES beside them. *: point of attachment. Boc = CC(C)(C)OC(=O)*; OBn = c1ccc(CO*)cc1

Key:
Assay in all cases: inhibition of tumour cell growth, NCI panel, 48 h
SF-539 CNS = system: SF-539 CNS
RXF 393 renal = system: RXF 393 renal
MDA-N = system: MDA-N
MDA-MB-231 breast = system: MDA-MB-231 breast
SW-620 colon = system: SW-620 colon
KM12 colon = system: KM12 colon
UACC-257 melanoma = system: UACC-257 melanoma
A498 renal = system: A498 renal
HOP-92 NSCLC = system: HOP-92 NSCLC
NCI-H23 lung = system: NCI-H23 lung
MALME-3M melanoma = system: MALME-3M melanoma
SNB-19 CNS = system: SNB-19 CNS
A549 NSCLC = system: A549 NSCLC
COLO 205 colon = system: COLO 205 colon
CAKI-1 renal = system: CAKI-1 renal
OVCAR-8 ovarian = system: OVCAR-8 ovarian
SNB-75 CNS = system: SNB-75 CNS
LOX IMVI melanoma = system: LOX IMVI melanoma
SK-OV-3 ovarian = system: SK-OV-3 ovarian
NCI-H226 lung = system: NCI-H226 lung
HT29 colon = system: HT29 colon
MDA-MB-435 = system: MDA-MB-435
EKVX NSCLC = system: EKVX NSCLC
SF-295 CNS = system: SF-295 CNS
SK-MEL-28 melanoma = system: SK-MEL-28 melanoma
OVCAR-3 ovarian = system: OVCAR-3 ovarian
T-47D breast = system: T-47D breast
DU-145 prostate = system: DU-145 prostate
OVCAR-5 ovarian = system: OVCAR-5 ovarian
TK-10 renal = system: TK-10 renal
HCT-15 colon = system: HCT-15 colon
OVCAR-4 ovarian = system: OVCAR-4 ovarian
PC-3 prostate = system: PC-3 prostate
UACC-62 melanoma = system: UACC-62 melanoma
SK-MEL-2 melanoma = system: SK-MEL-2 melanoma
M14 melanoma = system: M14 melanoma
MCF7 breast = system: MCF7 breast
UO-31 renal = system: UO-31 renal
SN12C renal = system: SN12C renal
NCI/ADR-RES ovarian = system: NCI/ADR-RES ovarian
NCI-H522 lung = system: NCI-H522 lung
SK-MEL-5 melanoma = system: SK-MEL-5 melanoma
IGROV1 ovarian = system: IGROV1 ovarian
ACHN renal = system: ACHN renal
SR leukemia = system: SR leukemia
786-0 renal = system: 786-0 renal
K-562 leukemia = system: K-562 leukemia
U251 CNS = system: U251 CNS
BT-549 breast = system: BT-549 breast
HCT-116 colon = system: HCT-116 colon
SF-268 CNS = system: SF-268 CNS
HS 578T breast = system: HS 578T breast
NCI-H460 lung = system: NCI-H460 lung
HCC-2998 colon = system: HCC-2998 colon
HOP-62 NSCLC = system: HOP-62 NSCLC
HL-60(TB) leukemia = system: HL-60(TB) leukemia
RPMI-8226 leukemia = system: RPMI-8226 leukemia
MOLT-4 leukemia = system: MOLT-4 leukemia
CCRF-CEM leukemia = system: CCRF-CEM leukemia

CC(C)CC(NC(=O)OC(C)(C)C)C(=O)NC(CC(=O)OCc1ccccc1)C(N)=O (stereo not drawn) (Boc-Leu-Asp(OBn)-NH2; configuration not given here)
TGI (SF-539 CNS): > 100 µM
TGI (RXF 393 renal): > 100 µM
TGI (MDA-N): > 100 µM
TGI (MDA-MB-231 breast): > 100 µM
TGI (SW-620 colon): > 100 µM
TGI (KM12 colon): > 100 µM
TGI (UACC-257 melanoma): > 100 µM
TGI (A498 renal): > 100 µM
TGI (HOP-92 NSCLC): > 100 µM
TGI (NCI-H23 lung): > 100 µM
TGI (MALME-3M melanoma): > 100 µM
TGI (SNB-19 CNS): > 100 µM
TGI (A549 NSCLC): > 100 µM
TGI (COLO 205 colon): > 100 µM
TGI (CAKI-1 renal): > 100 µM
TGI (OVCAR-8 ovarian): > 100 µM
TGI (SNB-75 CNS): > 100 µM
TGI (LOX IMVI melanoma): > 100 µM
TGI (SK-OV-3 ovarian): > 100 µM
TGI (NCI-H226 lung): > 100 µM
TGI (HT29 colon): > 100 µM
TGI (MDA-MB-435): > 100 µM
TGI (EKVX NSCLC): > 100 µM
TGI (SF-295 CNS): > 100 µM
TGI (SK-MEL-28 melanoma): > 100 µM
TGI (OVCAR-3 ovarian): > 100 µM
TGI (T-47D breast): > 100 µM
TGI (DU-145 prostate): > 100 µM
TGI (OVCAR-5 ovarian): > 100 µM
TGI (TK-10 renal): > 100 µM
TGI (HCT-15 colon): > 100 µM
TGI (OVCAR-4 ovarian): > 100 µM
TGI (PC-3 prostate): > 100 µM
TGI (UACC-62 melanoma): > 100 µM
TGI (SK-MEL-2 melanoma): > 100 µM
TGI (M14 melanoma): > 100 µM
TGI (MCF7 breast): > 100 µM
TGI (UO-31 renal): > 100 µM
TGI (SN12C renal): > 100 µM
TGI (NCI/ADR-RES ovarian): > 100 µM
TGI (NCI-H522 lung): > 100 µM
TGI (SK-MEL-5 melanoma): > 100 µM
TGI (IGROV1 ovarian): > 100 µM
TGI (ACHN renal): > 100 µM
TGI (SR leukemia): > 100 µM
TGI (786-0 renal): > 100 µM
TGI (K-562 leukemia): > 100 µM
TGI (U251 CNS): > 100 µM
TGI (BT-549 breast): > 100 µM
TGI (HCT-116 colon): > 100 µM
TGI (SF-268 CNS): > 100 µM
TGI (HS 578T breast): > 100 µM

CO[C@@H]1C[C@H](OC(N)=O)[C@@H]2C=C[C@@H]3/C=C(C)/C=C/[C@@H](C)[C@H]([C@H](C)[C@H](O)[C@@H](C)NC(C)=O)OC(=O)/C=C/C=C(C)\C=C\[C@]3(C)[C@@H]2C1
TGI (SF-539 CNS): 1.46 µM
TGI (RXF 393 renal): 3.06 µM
TGI (MDA-N): 6.03 µM
TGI (MDA-MB-231 breast): 0.0634 µM
TGI (SW-620 colon): 10.3 µM
TGI (UACC-257 melanoma): 3.04 µM
TGI (A498 renal): 0.496 µM
TGI (HOP-92 NSCLC): < 0.01 µM
TGI (NCI-H23 lung): 13.1 µM
TGI (MALME-3M melanoma): 3.53 µM
TGI (SNB-19 CNS): 17.7 µM
TGI (A549 NSCLC): 10 µM
TGI (COLO 205 colon): 11.1 µM
TGI (CAKI-1 renal): 2.67 µM
TGI (NCI-H460 lung): 1.58 µM
TGI (OVCAR-8 ovarian): 13.6 µM
TGI (LOX IMVI melanoma): < 0.01 µM
TGI (SK-OV-3 ovarian): 3.66 µM
TGI (HCC-2998 colon): 1.39 µM
TGI (NCI-H226 lung): < 0.01 µM
TGI (HT29 colon): 1.93 µM
TGI (MDA-MB-435): 4.36 µM
TGI (EKVX NSCLC): 5.34 µM
TGI (SF-295 CNS): 1.51 µM
TGI (SK-MEL-28 melanoma): 1.84 µM
TGI (OVCAR-3 ovarian): 3.65 µM
TGI (T-47D breast): 11 µM
TGI (DU-145 prostate): 9.01 µM
TGI (OVCAR-5 ovarian): 9.19 µM
TGI (TK-10 renal): 3.55 µM
TGI (HCT-15 colon): 6.77 µM
TGI (OVCAR-4 ovarian): 9.75 µM
TGI (PC-3 prostate): 10.8 µM
TGI (HOP-62 NSCLC): 4.81 µM
TGI (HL-60(TB) leukemia): 3.32 µM
TGI (UACC-62 melanoma): 1.4 µM
TGI (SK-MEL-2 melanoma): 7.09 µM
TGI (M14 melanoma): 1.62 µM
TGI (MCF7 breast): 11.3 µM
TGI (UO-31 renal): 0.645 µM
TGI (SN12C renal): 8.72 µM
TGI (NCI/ADR-RES ovarian): 6.11 µM
TGI (NCI-H522 lung): 1.44 µM
TGI (IGROV1 ovarian): 3.28 µM
TGI (ACHN renal): 2.67 µM
TGI (SR leukemia): 0.887 µM
TGI (786-0 renal): 6.62 µM
TGI (U251 CNS): 1.61 µM
TGI (BT-549 breast): > 28.5 µM
TGI (RPMI-8226 leukemia): 3.78 µM
TGI (HCT-116 colon): 1.25 µM
TGI (SF-268 CNS): 4.95 µM
TGI (HS 578T breast): 0.264 µM

CC[C@]12C=CCN3CC[C@@]4(c5cc(N=O)c(OC)cc5N(C)[C@H]4[C@@](O)(C(=O)NC(Cc4c[nH]c5ccccc45)C(=O)OC)[C@@H]1O)[C@@H]32 (stereo partly drawn)
TGI (SF-539 CNS): 30.5 µM
TGI (MOLT-4 leukemia): 27.9 µM
TGI (RXF 393 renal): 26.9 µM
TGI (MDA-N): 46.6 µM
TGI (MDA-MB-231 breast): 34.7 µM
TGI (SW-620 colon): 29.7 µM
TGI (KM12 colon): 26.1 µM
TGI (UACC-257 melanoma): 29.6 µM
TGI (A498 renal): > 100 µM
TGI (HOP-92 NSCLC): 28.8 µM
TGI (NCI-H23 lung): 38.5 µM
TGI (MALME-3M melanoma): 34.8 µM
TGI (SNB-19 CNS): 71.3 µM
TGI (A549 NSCLC): > 100 µM
TGI (COLO 205 colon): 29.2 µM
TGI (CAKI-1 renal): 31.9 µM
TGI (NCI-H460 lung): 38.7 µM
TGI (OVCAR-8 ovarian): 42.6 µM
TGI (SNB-75 CNS): 29.4 µM
TGI (LOX IMVI melanoma): 47 µM
TGI (SK-OV-3 ovarian): 38.9 µM
TGI (HCC-2998 colon): 29 µM
TGI (NCI-H226 lung): 52.4 µM
TGI (HT29 colon): 29.3 µM
TGI (MDA-MB-435): 33.3 µM
TGI (EKVX NSCLC): 52.2 µM
TGI (SF-295 CNS): 32.7 µM
TGI (SK-MEL-28 melanoma): 86.8 µM
TGI (OVCAR-3 ovarian): 28.6 µM
TGI (T-47D breast): 32 µM
TGI (DU-145 prostate): 30.9 µM
TGI (OVCAR-5 ovarian): 43.1 µM
TGI (TK-10 renal): 31.7 µM
TGI (HCT-15 colon): 44.7 µM
TGI (OVCAR-4 ovarian): 29.2 µM
TGI (PC-3 prostate): 23.9 µM
TGI (HOP-62 NSCLC): 34.6 µM
TGI (HL-60(TB) leukemia): 14.7 µM
TGI (UACC-62 melanoma): 29.6 µM
TGI (SK-MEL-2 melanoma): 34.1 µM
TGI (M14 melanoma): 41.1 µM
TGI (MCF7 breast): 35.2 µM
TGI (UO-31 renal): 45.3 µM
TGI (SN12C renal): 71.5 µM
TGI (NCI/ADR-RES ovarian): > 100 µM
TGI (NCI-H522 lung): 6.75 µM
TGI (SK-MEL-5 melanoma): 28 µM
TGI (IGROV1 ovarian): 34.9 µM
TGI (ACHN renal): 35.5 µM
TGI (SR leukemia): 54.7 µM
TGI (786-0 renal): > 100 µM
TGI (CCRF-CEM leukemia): 24.3 µM
TGI (K-562 leukemia): 31.4 µM
TGI (U251 CNS): 21.7 µM
TGI (BT-549 breast): 29.8 µM
TGI (HCT-116 colon): 28.3 µM
TGI (SF-268 CNS): > 100 µM
TGI (HS 578T breast): > 100 µM
